Measured values published in patent US20140010939A1, “Sweetness Enhancers, Sweetener Compositions, Methods of Making the Same and Consumables Containing the Same” (Nutrinova Nutrition Specialties & Food Ingredients GmbH, priority 2011, published 2014).

Assays:
[1] = Stability test at 30° C. at three pH-values (HPLC); type: physicochemical; settings: for Stability: 30° C., 8 weeks, 0.2 mM, HPLC
Protocol: The stability of the compound of formula (Ia) was tested at 30° C. at three different pH-values.
The test ran over 8 weeks with the compound of formula (Ia) placed in temperature controlled ovens. Samples were taken according to the following scheme: Days 0, 3, 6, 10, 14, 21, and 28 followed by weeks 6 and 8. All samples were analyzed by HPLC. Reference samples for days 3, 6, 10, 14, 21, and 28 plus weeks 6 and 8 were kept at −20° C. and analyzed together with the samples at 30° C.
Each individual sample of the compound of formula (Ia) contained 18 μg in 200 μl buffer (0.2 mM). All samples were prepared in 1.5 ml HPLC vials at the same day. Samples for day 0 were immediately analyzed and all other samples placed in ovens. Reference samples were immediately frozen at −20° C.
One reference sample per pH-value was used. Samples from the oven were taken and reference samples were added after thawing. The set of samples at 30° with reference sample was grouped into the HPLC autosampler to minimize the time gap between HPLC-analysis within each set of samples. All samples were analyzed by double injections.
Samples were analyzed by the method shown below. The target peak was manually integrated and mean values of double injections were used to prepare graphs for assessment of the stability (see FIGS. 4 to 6).

[2] = Solubility assessment in buffer (visual check by two persons); type: physicochemical
Protocol: 20 μmol (8.96 mg) of the compound of formula (Ia) were used for samples preparation. The samples were partitioned into two portions for each buffer system and placed into 1.6 ml glass vials. To each of the vials 100 μl of the respective buffer solution was added to prepare the 100 mM samples. All Samples were thoroughly sonicated and vortexed to yield homogenous solutions or suspensions. The resulting set of samples consisted of • Compound of formula (Ia)—100 mM, buffer 3.0 • Compound of formula (Ia)—100 mM, buffer 6.5
In a second step from each of the prior listed samples 7.5 μl were pipetted into 1.6 ml glass vials followed by addition of 142.5 μl of the respective buffer solution. The resulting set of samples consisted of: • Compound of formula (Ia)—5 mM, buffer 3.0 • Compound of formula (Ia)—5 mM, buffer 6.5
In a third step, after sonication and vortexing to yield homogenous solutions or suspensions, 25 μl from each of the samples listed above were pipetted into 1.6 ml glass vials followed by addition of 100 μl of the respective buffer solution. The resulting set of samples consisted of: • Compound of formula (Ia)—1 mM, buffer 3.0 • Compound of formula (Ia)—1 mM, buffer 6.5
After the preparation of all 6 samples, the entire set was sonicated and vortexed again.
Afterwards the set of 6 samples was placed into a deep freezer and stored at −22° C. for 72 h. After that period, the samples were thawed, sonicated, and vortexed.
In a final step the set of 6 samples was placed into a dark box at 23° C. for 72 h. After that period, the samples were sonicated, and vortexed.
The results of the solubility study are documented in three tables. Three categories for the state of solution are in generally used: “Yes”, “Incomplete” and “No”. The category “Yes” is only used in case of a clear flawless solution. The category “Incomplete” is used in case of a visible strong reduction of undissolved matter. The category “No” was used for all other cases.

Stability ([1]; pH=3.0 Na-Citrate buffer, FIG. 4): stable during 8 weeks at 30 °C at pH=3.0
Stability ([1]; pH=4.5 Na-Citrate buffer, FIG. 5): stable during 8 weeks at 30 °C at pH=4.5
Stability ([1]; pH=6.5 phosphate buffer, FIG. 6): stable during 8 weeks at 30 °C at pH=6.5
Temperature and pH stability (overall) ([1]; summary of the test at 30° C., pH 3.0, 4.5, 6.5): excellent temperature and pH stability
Dissolved after freezing/thawing ([2]; 1 mM, buffer 3.0, after −22° C. for 72 h and thawing): yes
Dissolved after three days at room temperature ([2]; 1 mM, buffer 3.0, dark box at 23° C. for 72 h): yes
Immediately dissolved ([2]; 1 mM, buffer 3.0, directly after sample preparation): yes
Dissolved after freezing/thawing ([2]; 1 mM, buffer 6.5, after −22° C. for 72 h and thawing): yes
Dissolved after three days at room temperature ([2]; 1 mM, buffer 6.5, dark box at 23° C. for 72 h): yes
Immediately dissolved ([2]; 1 mM, buffer 6.5, directly after sample preparation): yes
Dissolved after freezing/thawing ([2]; 5 mM, buffer 3.0, after −22° C. for 72 h and thawing): yes
Dissolved after three days at room temperature ([2]; 5 mM, buffer 3.0, dark box at 23° C. for 72 h): yes
Immediately dissolved ([2]; 5 mM, buffer 3.0, directly after sample preparation): yes
Dissolved after freezing/thawing ([2]; 5 mM, buffer 6.5, after −22° C. for 72 h and thawing): yes
Dissolved after three days at room temperature ([2]; 5 mM, buffer 6.5, dark box at 23° C. for 72 h): yes
Immediately dissolved ([2]; 5 mM, buffer 6.5, directly after sample preparation): yes
Dissolved after freezing/thawing ([2]; 100 mM, buffer 3.0, after −22° C. for 72 h and thawing): yes
Dissolved after three days at room temperature ([2]; 100 mM, buffer 3.0, dark box at 23° C. for 72 h): yes
Immediately dissolved ([2]; 100 mM, buffer 3.0, directly after sample preparation): yes
Dissolved after freezing/thawing ([2]; 100 mM, buffer 6.5, after −22° C. for 72 h and thawing): yes
Dissolved after three days at room temperature ([2]; 100 mM, buffer 6.5, dark box at 23° C. for 72 h): yes
Immediately dissolved ([2]; 100 mM, buffer 6.5, directly after sample preparation): yes
Solubility (overall) ([2]; summary: 1, 5 and 100 mM in water with buffer at pH 3.0 and 6.5): immediately dissolved at all conditions
SMILES: CC(=O)N(O)CCCCCNC(=O)C(O)(CC(=O)O)CC(=O)NCCCN(O)C(C)=O (centres unmarked) [compound of formula (Ia)]
